Measurements from patent publication EP0806480A2, “Frenolicin gene cluster” (F. HOFFMANN-LA ROCHE AG, priority 1996, dated 1997).

tested on: Streptomyces and other bacteria; experiment: Toxicity of frenolicins to bacteria (comparative statement, no method described); type: cell-based; settings: relative ranking among the frenolicins; qualitative only

Compound	toxic to Streptomyces and other bacteria
CCC[C@H]1O[C@H](CC(=O)O)CC2=C1C(=O)c1c(O)cccc1C2=O [deoxyfrenolicin]	less toxic
frenolicin B [reference compound]	most toxic
frenolicin epoxide	even less so
